Laboratory results from US20260130395A1, “Water Dispersible Botanical Compositions” (Aquila Black Limited, priority 2021, published 2026).

Assay: Stability of cannabinoid compounds and Vitamin E components in Beverage 2 (AB Red) by LCMSMS
Format: physicochemical
Protocol: The stability of the plant-derived cannabinoid compounds and Vitamin E components of the beverage stored 8° C. and at room temperature (21-25° C.) were monitored, over a period of 570 days via Liquid Chromatography-tandem Mass Spectrometry [LCMSMS, AGilent 6590, C18, 3×50 mm, 2.7 m (Agilent InfinityLab Poroshell 120 EC-C18), Electrospray Ionization detector]. The LCMSMS was calibrated for 0-50 ng/ml cannabinoids with the same resin material used in the preparation of the concentrates. At each time period, 100 ml of beverage was diluted with 10 ml of methanol and injected into the LCMSMS for analysis.

Cc1c(C)c2c(c(C)c1O)CC[C@@](C)(CCC[C@H](C)CCC[C@H](C)CCCC(C)C)O2 [α-Tocopherol]
Stability of Vitamin Es in AB Red (stored at 8° C., 0 days): 25.3 µg/mL | Stability of Vitamin Es in AB Red (stored at 8° C., 1 days): 25.2 µg/mL | Stability of Vitamin Es in AB Red (stored at 8° C., 2 days): 24.9 µg/mL | Stability of Vitamin Es in AB Red (stored at 8° C., 3 days): 25.3 µg/mL | Stability of Vitamin Es in AB Red (stored at 8° C., 5 days): 24.2 µg/mL | Stability of Vitamin Es in AB Red (stored at 8° C., 8 days): 23.7 µg/mL | Stability of Vitamin Es in AB Red (stored at 8° C., 9 days): 24.6 µg/mL | Stability of Vitamin Es in AB Red (stored at 8° C., 10 days): 24.9 µg/mL | Stability of Vitamin Es in AB Red (stored at 8° C., 11 days): 23.9 µg/mL | Stability of Vitamin Es in AB Red (stored at 8° C., 12 days): 24.4 µg/mL | Stability of Vitamin Es in AB Red (stored at 8° C., 15 days): 25.6 µg/mL | Stability of Vitamin Es in AB Red (stored at 8° C., 16 days): 24.5 µg/mL | Stability of Vitamin Es in AB Red (stored at 8° C., 17 days): 23.6 µg/mL | Stability of Vitamin Es in AB Red (stored at 8° C., 18 days): 24.1 µg/mL | Stability of Vitamin Es in AB Red (stored at 8° C., 19 days): 24.0 µg/mL | Stability of Vitamin Es in AB Red (stored at 8° C., 22 days): 25.0 µg/mL | Stability of Vitamin Es in AB Red (stored at 8° C., 23 days): 23.2 µg/mL | Stability of Vitamin Es in AB Red (stored at 8° C., 24 days): 24.3 µg/mL | Stability of Vitamin Es in AB Red (stored at 8° C., 25 days): 23.6 µg/mL | Stability of Vitamin Es in AB Red (stored at 8° C., 26 days): 25.2 µg/mL | Stability of Vitamin Es in AB Red (stored at 8° C., 29 days): 23.5 µg/mL | Stability of Vitamin Es in AB Red (stored at 8° C., 30 days): 24.2 µg/mL | Stability of Vitamin Es in AB Red (stored at 8° C., 60 days): 24.2 µg/mL | Stability of Vitamin Es in AB Red (stored at 8° C., 90 days): 23.1 µg/mL | Stability of Vitamin Es in AB Red (stored at 8° C., 120 days): 25.2 µg/mL | Stability of Vitamin Es in AB Red (stored at 8° C., 150 days): 25.4 µg/mL | Stability of Vitamin Es in AB Red (stored at 8° C., 180 days): 23.6 µg/mL | Stability of Vitamin Es in AB Red (stored at 8° C., 210 days): 23.5 µg/mL | Stability of Vitamin Es in AB Red (stored at 8° C., 240 days): 23.6 µg/mL | Stability of Vitamin Es in AB Red (stored at 8° C., 270 days): 23.6 µg/mL | Stability of Vitamin Es in AB Red (stored at 8° C., 300 days): 23.1 µg/mL | Stability of Vitamin Es in AB Red (stored at 8° C., 330 days): 22.9 µg/mL | Stability of Vitamin Es in AB Red (stored at 8° C., 360 days): 22.4 µg/mL | Stability of Vitamin Es in AB Red (stored at 8° C., 390 days): 23.1 µg/mL | Stability of Vitamin Es in AB Red (stored at 8° C., 420 days): 22.3 µg/mL | Stability of Vitamin Es in AB Red (stored at 8° C., 450 days): 22.7 µg/mL | Stability of Vitamin Es in AB Red (stored at 8° C., 480 days): 21.8 µg/mL | Stability of Vitamin Es in AB Red (stored at 8° C., 510 days): 22.0 µg/mL | Stability of Vitamin Es in AB Red (stored at 8° C., 540 days): 21.8 µg/mL | Stability of Vitamin Es in AB Red (stored at 8° C., 570 days): 21.5 µg/mL | Stability of Vitamin Es in AB Red (stored at 21-25° C., 0 days): 25.3 µg/mL | Stability of Vitamin Es in AB Red (stored at 21-25° C., 1 days): 24.4 µg/mL | Stability of Vitamin Es in AB Red (stored at 21-25° C., 2 days): 24.1 µg/mL | Stability of Vitamin Es in AB Red (stored at 21-25° C., 3 days): 23.8 µg/mL | Stability of Vitamin Es in AB Red (stored at 21-25° C., 5 days): 22.9 µg/mL | Stability of Vitamin Es in AB Red (stored at 21-25° C., 8 days): 24.5 µg/mL | Stability of Vitamin Es in AB Red (stored at 21-25° C., 9 days): 23.3 µg/mL | Stability of Vitamin Es in AB Red (stored at 21-25° C., 10 days): 23.0 µg/mL | Stability of Vitamin Es in AB Red (stored at 21-25° C., 11 days): 24.4 µg/mL | Stability of Vitamin Es in AB Red (stored at 21-25° C., 12 days): 23.4 µg/mL | Stability of Vitamin Es in AB Red (stored at 21-25° C., 15 days): 24.8 µg/mL | Stability of Vitamin Es in AB Red (stored at 21-25° C., 16 days): 25.1 µg/mL | Stability of Vitamin Es in AB Red (stored at 21-25° C., 17 days): 24.4 µg/mL | Stability of Vitamin Es in AB Red (stored at 21-25° C., 18 days): 24.9 µg/mL | Stability of Vitamin Es in AB Red (stored at 21-25° C., 19 days): 25.4 µg/mL | Stability of Vitamin Es in AB Red (stored at 21-25° C., 22 days): 25.4 µg/mL | Stability of Vitamin Es in AB Red (stored at 21-25° C., 23 days): 24.6 µg/mL | Stability of Vitamin Es in AB Red (stored at 21-25° C., 24 days): 23.5 µg/mL | Stability of Vitamin Es in AB Red (stored at 21-25° C., 25 days): 25.5 µg/mL | Stability of Vitamin Es in AB Red (stored at 21-25° C., 26 days): 24.3 µg/mL | Stability of Vitamin Es in AB Red (stored at 21-25° C., 29 days): 24.4 µg/mL | Stability of Vitamin Es in AB Red (stored at 21-25° C., 30 days): 24.6 µg/mL | Stability of Vitamin Es in AB Red (stored at 21-25° C., 60 days): 24.4 µg/mL | Stability of Vitamin Es in AB Red (stored at 21-25° C., 90 days): 24.3 µg/mL | Stability of Vitamin Es in AB Red (stored at 21-25° C., 120 days): 23.7 µg/mL | Stability of Vitamin Es in AB Red (stored at 21-25° C., 150 days): 23.4 µg/mL | Stability of Vitamin Es in AB Red (stored at 21-25° C., 180 days): 23.3 µg/mL | Stability of Vitamin Es in AB Red (stored at 21-25° C., 210 days): 22.7 µg/mL | Stability of Vitamin Es in AB Red (stored at 21-25° C., 240 days): 23.1 µg/mL | Stability of Vitamin Es in AB Red (stored at 21-25° C., 270 days): 23.1 µg/mL | Stability of Vitamin Es in AB Red (stored at 21-25° C., 300 days): 23.5 µg/mL | Stability of Vitamin Es in AB Red (stored at 21-25° C., 330 days): 22.6 µg/mL | Stability of Vitamin Es in AB Red (stored at 21-25° C., 360 days): 21.9 µg/mL | Stability of Vitamin Es in AB Red (stored at 21-25° C., 390 days): 22.7 µg/mL | Stability of Vitamin Es in AB Red (stored at 21-25° C., 420 days): 22.5 µg/mL | Stability of Vitamin Es in AB Red (stored at 21-25° C., 450 days): 22.3 µg/mL | Stability of Vitamin Es in AB Red (stored at 21-25° C., 480 days): 21.6 µg/mL | Stability of Vitamin Es in AB Red (stored at 21-25° C., 510 days): 21.4 µg/mL | Stability of Vitamin Es in AB Red (stored at 21-25° C., 540 days): 21.0 µg/mL | Stability of Vitamin Es in AB Red (stored at 21-25° C., 570 days): 21.4 µg/mL
